Test results as given in the OligoGym collection.
HELM strings list units from the 5' end as sugar, base in round brackets, then linkage (d deoxyribose, r ribose, m 2'-O-methyl, p phosphodiester). Strings are as the collection lists them; they lack the last nucleoside at the 3' end of the tested compound. [moe] = 2'-O-(2-methoxyethyl) (MOE); [sp] = phosphorothioate linkage; [m5C] = 5-methylcytosine

Target: GFAP
Experiment: mouse, dose not given
Details: ASO

Substance	3 h FOB score
RNA1{[moe](G)[sp].[moe](G)p.[moe](T)p.[moe](G)p.[moe]([m5C])p.d(T)[sp].d(T)[sp].d(T)[sp].d(T)[sp].d(G)[sp].d([m5C])[sp].d([m5C])[sp].d([m5C])[sp].d([m5C])[sp].d([m5C])[sp].[moe](T)p.[moe](G)p.[moe](T)[sp].[moe](A)}$$$$ (last 3' nucleoside missing)	3 score 0-7
RNA1{[moe](T)[sp].[moe]([m5C])p.[moe](A)p.[moe]([m5C])p.[moe](A)p.d(T)[sp].d(T)[sp].d([m5C])[sp].d(A)[sp].d([m5C])[sp].d(T)[sp].d(A)[sp].d(A)[sp].d(T)[sp].d(A)[sp].[moe](T)p.[moe](T)p.[moe](T)[sp].[moe](A)}$$$$ (last 3' nucleoside missing)	0 score 0-7
RNA1{[moe](G)[sp].[moe](G)p.[moe](A)p.[moe](G)p.[moe](G)[sp].d(G)[sp].d([m5C])[sp].d(G)[sp].d(A)[sp].d(T)[sp].d(G)[sp].d(T)[sp].d(A)[sp].d(G)[sp].d(T)[sp].[moe](A)p.[moe](G)p.[moe](G)[sp].[moe](T)}$$$$ (last 3' nucleoside missing)	1 score 0-7
RNA1{[moe](G)[sp].[moe](T)p.[moe](G)p.[moe](A)p.[moe](G)[sp].d(T)[sp].d(T)[sp].d(T)[sp].d([m5C])[sp].d(T)[sp].d(T)[sp].d(G)[sp].d(T)[sp].d(T)[sp].d(A)[sp].[moe](G)p.[moe](T)p.[moe](T)[sp].[moe](G)}$$$$ (last 3' nucleoside missing)	7 score 0-7
RNA1{[moe](A)[sp].[moe]([m5C])p.[moe](T)p.[moe](A)p.d(T)[sp].d([m5C])[sp].d(T)[sp].d(A)[sp].d(G)[sp].d(G)[sp].d(A)[sp].d(T)[sp].d(T)[sp].d(T)[sp].[moe](G)p.[moe](G)p.[moe]([m5C])p.[moe](A)[sp].[moe](G)}$$$$ (last 3' nucleoside missing)	2 score 0-7
RNA1{[moe](G)[sp].[moe](G)p.[moe]([m5C])p.[moe](A)p.[moe](G)[sp].d(T)[sp].d(A)[sp].d(T)[sp].d(T)[sp].d(A)[sp].d([m5C])[sp].d([m5C])[sp].d(T)[sp].d([m5C])[sp].d(T)[sp].[moe](A)p.[moe]([m5C])p.[moe](T)[sp].[moe](A)}$$$$ (last 3' nucleoside missing)	3 score 0-7
RNA1{[moe](A)[sp].[moe]([m5C])p.[moe](A)p.[moe](G)p.[moe](T)p.d(T)[sp].d([m5C])[sp].d([m5C])[sp].d([m5C])[sp].d(A)[sp].d(G)[sp].d(A)[sp].d(T)[sp].d(A)[sp].d([m5C])[sp].[moe](T)p.[moe]([m5C])p.[moe]([m5C])[sp].[moe](G)}$$$$ (last 3' nucleoside missing)	2 score 0-7
RNA1{[moe](A)[sp].[moe](G)p.[moe](A)p.[moe](T)p.[moe](A)[sp].d(T)[sp].d([m5C])[sp].d(T)[sp].d(T)[sp].d(G)[sp].d(T)[sp].d(G)[sp].d(A)[sp].d([m5C])[sp].d([m5C])[sp].[moe](T)p.[moe](T)p.[moe](G)[sp].[moe](T)}$$$$ (last 3' nucleoside missing)	6 score 0-7
RNA1{[moe](G)[sp].[moe]([m5C])p.[moe](T)p.[moe](T)p.d(T)[sp].d(T)[sp].d(G)[sp].d([m5C])[sp].d([m5C])[sp].d([m5C])[sp].d([m5C])[sp].d([m5C])[sp].d(T)[sp].d(G)[sp].[moe](T)p.[moe](A)p.[moe](G)p.[moe](T)[sp].[moe](G)}$$$$ (last 3' nucleoside missing)	3 score 0-7
RNA1{[moe](G)[sp].[moe](G)p.[moe]([m5C])p.[moe]([m5C])p.[moe](T)[sp].d(A)[sp].d([m5C])[sp].d(T)[sp].d(T)[sp].d([m5C])[sp].d(T)[sp].d([m5C])[sp].d(T)[sp].d(A)[sp].d(G)[sp].[moe](G)p.[moe](T)p.[moe](G)[sp].[moe](G)}$$$$ (last 3' nucleoside missing)	1 score 0-7
